Test results from ChEMBL document CHEMBL3045720, “Synthesis and antifungal activity of 2-chloromethyl-1H-benzimidazole derivatives against phytopathogenic fungi in vitro” (J Agric Food Chem, 2013).
In brackets after ≈: the same amount, converted by molar mass.

Experiments:
[1] = test system: Alternaria solani; assay: Antifungal activity against Alternaria solani assessed as inhibition of mycelium growth after 1 week; assay type: functional, organism-based
[2] = test system: Fusarium solani; assay: Antifungal activity against Fusarium solani assessed as inhibition of mycelium growth at 100 ug/ml […]; assay type: functional; settings: 168 h, read-out: GI
[3] = test system: Botrytis cinerea; assay: Antifungal activity against Botryotinia fuckeliana assessed as inhibition of mycelium growth after 1 week; assay type: functional, organism-based; settings: 168 h
[4] = test system: Cytospora; assay: Antifungal activity against Cytospora sp. assessed as […]; assay type: functional, organism-based
[5] = test system: Colletotrichum gloeosporioides; assay: Antifungal activity against Colletotrichum gloeosporioides assessed as inhibition of mycelium growth […]; assay type: functional, organism-based
[6] = test system: Colletotrichum gloeosporioides; assay: Antifungal activity against Colletotrichum gloeosporioides assessed as inhibition of mycelium growth at 100 ug/ml after 3 to 4 days; settings: 72 to 96 h, read-out: GI
[7] = test system: Cytospora; assay: Antifungal activity against Cytospora sp. assessed as inhibition of mycelium growth at 100 ug/ml after 3 to 4 days; settings: 72 to 96 h, read-out: GI
[8] = test system: Alternaria solani; assay: Antifungal activity against Alternaria solani assessed as inhibition of mycelium growth at 100 ug/ml […]; assay type: functional; settings: 168 h, read-out: GI
[9] = test system: Fusarium solani; assay: Antifungal activity against Fusarium solani assessed as inhibition of mycelium growth after 1 week; assay type: functional, organism-based
[10] = test system: Botrytis cinerea; assay: Antifungal activity against Botryotinia fuckeliana assessed as inhibition of mycelium growth at 100 ug/ml […]; assay type: functional; settings: 168 h, read-out: GI
[11] = Alternaria solani, 168 h, read-out: IC50
[12] = Cytospora, 168 h, read-out: IC50
[13] = Colletotrichum gloeosporioides, read-out: IC50
[14] = Fusarium solani, 168 h, read-out: IC50

Row | SMILES | IC50 [1, 11] [µg/mL] | inhibition of growth at 100 µg/mL [2] [%] | IC50 [3] [µg/mL] | IC50 [4, 12] [µg/mL] | IC50 [5, 13] [µg/mL] | inhibition of growth at 100 µg/mL [6] [%] | inhibition of growth at 100 µg/mL [7] [%] | inhibition of growth at 100 µg/mL [8] [%] | IC50 [9, 14] [µg/mL] | inhibition of growth at 100 µg/mL [10] [%] | IC50 [4] | IC50 [9] | IC50 [1] | IC50 [5]
1 | Cn1c(COc2ccccc2)nc2ccccc21 | 27.6 (≈ 116 µM) | 84.5 | > 150 | 50 (≈ 210 µM) | 20.8 (≈ 87.1 µM) | 87.3 | 84.2 | 75.4 | 18.6 (≈ 78.1 µM) | 29.8 |  |  |  | 
2 | ClCc1nc2ccccc2[nH]1 | > 100 | 6.59 | > 100 |  | 83.1 (≈ 499 µM) | 67.6 | < 5 | 25.3 |  | 53.2 | Not Active | Not Active |  | 
3 | CNc1ccccc1N(C)C(=O)CCl |  | 30.1 |  |  |  | 41.3 | < 5 | 25.3 |  | 64.4 |  |  |  | 
4 | CCCOC(=O)c1ccc(OCc2nc3ccccc3n2C)cc1 |  | 42.2 |  |  |  | 20.6 | 48.3 | 63.6 |  | < 5 |  |  |  | 
5 | Cn1c(COc2ccc(Cl)cc2)nc2ccccc21 | 62.5 (≈ 229 µM) | 64.1 | 26.8 (≈ 98.3 µM) | 24.9 (≈ 91.3 µM) | 41.3 (≈ 151 µM) | 90.5 | 76.3 | 77.8 | > 100 | 83 |  |  |  | 
6 | Cn1c(COc2ccc(C=O)cc2)nc2ccccc21 |  | 12 |  |  |  | 49.2 | 21 | 27.8 |  | < 5 |  |  |  | 
7 | C=CCc1ccc(OCc2nc3ccccc3n2C)c(OC)c1 |  | 60.4 |  |  |  | 38.1 | 49.7 | 40.1 |  | 47.4 |  |  |  | 
8 | Cn1c(COc2cccc3ccccc23)nc2ccccc21 |  | 53 |  |  |  | 22.2 | 62.6 | 50.7 |  | < 5 |  |  |  | 
9 | CCOC(=O)c1ccc(OCc2nc3ccccc3n2C)cc1 | > 150 | 21.4 | > 150 | 52.6 (≈ 169 µM) | 49.7 (≈ 160 µM) | 71.7 | 79.9 | 39.1 | > 150 | 35.9 |  |  |  | 
10 | COC(=O)c1ccc(OCc2nc3ccccc3n2C)cc1 |  | 48.2 |  |  |  | < 5 | 31 | 64.6 |  | 6.43 |  |  |  | 
11 | Cn1c(COc2ccc(C(C)(C)C)cc2)nc2ccccc21 |  | < 5 |  |  |  | 63.8 | 28.2 | 23.6 |  | 64.8 |  |  |  | 
12 | Cn1c(COc2ccc3c(c2)OCO3)nc2ccccc21 | > 100 | 74.5 | 63.7 (≈ 226 µM) | 54.3 (≈ 192 µM) | 55.7 (≈ 197 µM) | 81 | 80.6 | 64 | 73 (≈ 258 µM) | 88.3 |  |  |  | 
13 | COc1cc(C=O)ccc1OCc1nc2ccccc2n1C |  | 24.7 |  |  |  | < 5 | 10.2 | 40.9 |  | 15.2 |  |  |  | 
14 | COc1cc(C(C)=O)ccc1OCc1nc2ccccc2n1C |  | < 5 |  |  |  | 14.3 | 26 | 17.9 |  | 59.1 |  |  |  | 
15 | Cn1c(COc2ccc([N+](=O)[O-])cc2)nc2ccccc21 |  | 8.6 |  |  |  | 41.3 | 19.5 | 11.3 |  | < 5 |  |  |  | 
16 | CC(=O)n1c(CCl)nc2ccccc21 |  | 21.4 | 50.9 (≈ 244 µM) |  | > 150 | 43.9 | 8.05 | 11.3 |  | 57.3 | Not Active | Not Active | Not Active | 
17 | CS(=O)(=O)n1c(CCl)nc2ccccc21 | > 100 | 79.2 | 57.7 (≈ 236 µM) | 31 (≈ 127 µM) | 11.4 (≈ 46.5 µM) | 100 | 100 | 68 | 40.1 (≈ 164 µM) | 79.9 |  |  |  | 

Row | SMILES | IC50 [1, 11] [µg/mL] | inhibition of growth at 100 µg/mL [2] [%] | IC50 [3] [µg/mL] | IC50 [4, 12] [µg/mL] | IC50 [5, 13] [µg/mL] | inhibition of growth at 100 µg/mL [6] [%] | inhibition of growth at 100 µg/mL [7] [%] | inhibition of growth at 100 µg/mL [8] [%] | IC50 [9, 14] [µg/mL] | inhibition of growth at 100 µg/mL [10] [%] | IC50 [4] | IC50 [9] | IC50 [1] | IC50 [5]
18 | O=S(=O)(c1ccc(Cl)cc1)n1c(CCl)nc2ccccc21 |  | 28.1 | > 100 |  | 22.3 (≈ 65.3 µM) | 74.6 | 27.4 | 31.9 |  | 57.3 | Not Active | Not Active | Not Active | 
19 | Cn1c(CCl)nc2cc([N+](=O)[O-])ccc21 | 27.9 (≈ 124 µM) | 100 | > 100 | 22.5 (≈ 99.6 µM) | 28 (≈ 124 µM) | 100 | 100 | 100 | 23.3 (≈ 103 µM) | 48.7 |  |  |  | 
20 | CC(=O)c1cccc(OCc2nc3cc([N+](=O)[O-])ccc3n2C)c1 |  | < 5 |  |  |  | < 5 | 51.9 | < 5 |  | < 5 |  |  |  | 
21 | CC(=O)c1ccccc1OCc1nc2cc([N+](=O)[O-])ccc2n1C |  | < 5 |  |  |  | < 5 | < 5 | 13.8 |  | < 5 |  |  |  | 
22 | CC(=O)c1ccc(OCc2nc3cc([N+](=O)[O-])ccc3n2C)cc1 |  | < 5 |  |  |  | < 5 | < 5 | 33.5 |  | 38.6 |  |  |  | 
23 | CCCOC(=O)c1ccc(OCc2nc3cc([N+](=O)[O-])ccc3n2C)cc1 |  | 19.4 |  |  |  | < 5 | 10.9 | 8.05 |  | < 5 |  |  |  | 
24 | Cn1c(COc2ccc(F)cc2)nc2cc([N+](=O)[O-])ccc21 |  | 9.95 |  |  |  | < 5 | 22.4 | < 5 |  | < 5 |  |  |  | 
25 | Cn1c(COc2ccc(Cl)cc2)nc2cc([N+](=O)[O-])ccc21 |  | < 5 | 13.4 (≈ 42 µM) |  |  | 6.35 | 10.2 | 30.2 |  | 100 | Not Active | Not Active | Not Active | Not Active
26 | Cn1c(COc2ccc(C=O)cc2)nc2cc([N+](=O)[O-])ccc21 |  | < 5 |  |  |  | < 5 | 9.48 | 16.3 |  | < 5 |  |  |  | 
27 | C=CCc1ccc(OCc2nc3cc([N+](=O)[O-])ccc3n2C)c(OC)c1 |  | 25.4 |  |  |  | < 5 | < 5 | 35.1 |  | 24 |  |  |  | 
28 | Cn1c(COc2cccc3ccccc23)nc2cc([N+](=O)[O-])ccc21 |  | < 5 |  |  |  | < 5 | < 5 | 19.5 |  | < 5 |  |  |  | 
29 | CCOC(=O)c1ccc(OCc2nc3cc([N+](=O)[O-])ccc3n2C)cc1 |  | < 5 |  |  |  | < 5 | < 5 | 11.3 |  | < 5 |  |  |  | 
30 | COC(=O)c1ccc(OCc2nc3cc([N+](=O)[O-])ccc3n2C)cc1 |  | 18 |  |  |  | 59.1 | < 5 | < 5 |  | 32.2 |  |  |  | 
31 | Cn1c(COc2ccc(C(C)(C)C)cc2)nc2cc([N+](=O)[O-])ccc21 |  | < 5 |  |  |  | 30.2 | < 5 | 30.2 |  | 57.3 |  |  |  | 
32 | Cn1c(COc2ccccc2)nc2cc([N+](=O)[O-])ccc21 |  | 5.91 |  |  |  | < 5 | < 5 | 10.5 |  | 7.89 |  |  |  | 
33 | Cn1c(COc2ccc3c(c2)OCO3)nc2cc([N+](=O)[O-])ccc21 |  | 34.8 | 69.1 (≈ 211 µM) |  |  | < 5 | 12.4 | 7.22 |  | 91.2 | Not Active | Not Active | Not Active | Not Active
